# From article PMC10815991, “Membrane-Bound Redox Enzyme Cytochrome bd-I Promotes Carbon Monoxide-Resistant Escherichia coli Growth and Respiration” (International Journal of Molecular Sciences, 2024)
# Where two headings read alike, the source gives them in different places.
# Tests used:
# [1] = target: T1, cytochrome bd-I (bd-I-only E. coli cells) (Escherichia coli, UniProt P0ABJ9); experiment: O2 consumption (aerobic respiration) of bd-I-only E. coli cell suspensions; type: cell-based
# T1 construct: the oxidases were in vivo conditions, i.e., integrated into native bacterial membranes; endogenous in cells; host or cells: E. coli TBE037 (MG1655 ΔappB nuoB cyoB::kan); whole cells (A1) or membranes isolated from them (A5)
# T1 sequence (P0ABJ9 whole entry): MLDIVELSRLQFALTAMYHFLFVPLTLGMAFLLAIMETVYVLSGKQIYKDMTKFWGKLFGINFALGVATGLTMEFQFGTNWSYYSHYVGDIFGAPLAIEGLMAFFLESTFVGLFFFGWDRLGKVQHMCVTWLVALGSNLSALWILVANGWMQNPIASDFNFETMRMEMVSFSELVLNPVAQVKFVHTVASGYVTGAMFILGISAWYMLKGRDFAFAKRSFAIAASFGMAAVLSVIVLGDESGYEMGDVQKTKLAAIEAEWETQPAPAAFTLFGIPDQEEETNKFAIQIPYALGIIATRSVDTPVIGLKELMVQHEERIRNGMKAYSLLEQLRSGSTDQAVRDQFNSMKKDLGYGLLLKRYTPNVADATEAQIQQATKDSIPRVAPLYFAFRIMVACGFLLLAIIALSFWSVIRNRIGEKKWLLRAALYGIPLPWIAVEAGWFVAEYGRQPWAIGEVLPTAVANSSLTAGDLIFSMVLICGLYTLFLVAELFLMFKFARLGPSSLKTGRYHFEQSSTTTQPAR
# T1 sequence (P0ABK2 whole entry partner): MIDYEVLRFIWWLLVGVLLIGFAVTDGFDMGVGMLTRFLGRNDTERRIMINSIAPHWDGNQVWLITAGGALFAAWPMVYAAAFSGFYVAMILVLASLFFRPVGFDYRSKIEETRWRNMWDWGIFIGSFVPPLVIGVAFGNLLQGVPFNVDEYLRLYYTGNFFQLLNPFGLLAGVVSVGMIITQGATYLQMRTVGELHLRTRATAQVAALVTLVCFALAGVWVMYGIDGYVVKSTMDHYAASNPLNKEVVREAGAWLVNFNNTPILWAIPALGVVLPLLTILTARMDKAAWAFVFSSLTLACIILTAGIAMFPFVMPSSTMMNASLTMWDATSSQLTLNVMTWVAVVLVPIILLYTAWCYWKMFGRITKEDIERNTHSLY
# T1 sequence (P56100 whole entry partner): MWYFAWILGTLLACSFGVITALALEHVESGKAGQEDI
# T1 sequence (A5A618 whole entry partner): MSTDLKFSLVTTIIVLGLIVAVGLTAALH
# Description: (§1) The CO and N2 gases were purchased from Linde (Danbury, CT, USA) and Air Liquide (Air Liquide Italia Spa, Milano, Italy), respectively. Other chemicals were purchased from Merck KGaA (Darmstadt, Germany). A stock solution of CO or N2 was prepared by equilibrating degassed water with the pure gas at 1 atm and room temperature, yielding 1 mM CO and 0.7 mM N2 in solution. E. coli respiratory mutant strains TBE025 (MG1655 ΔcydB nuoB appB::kan), TBE026 (MG1655 ΔcydB nuoB cyoB::kan), and TBE037 (MG1655 ΔappB nuoB cyoB::kan), which respectively express cytochrome bo3, cytochrome bd-II, or cytochrome bd-I as the sole terminal oxidase, were used. E. coli cultures were grown in Luria–Bertani (LB) medium supplemented with 30 μg/mL kanamycin, at 37 °C and 200 rpm. In the case of growth studies, after inoculation at an OD600 of 0.15 ± 0.03, the cells were grown in 50 mL rubber-stoppered flasks in 16 mL of air-equilibrated LB at 37 °C for 60 min; when OD600 reached 0.4 ± 0.08, they were bubbled for 30 s with either CO (pure gas at 1 atm and room temperature) or N2 (pure gas at 1 atm and room temperature) as a control to yield a final concentration of both gases of ~20%. The gas percentage was assessed by taking into account the different O2 concentrations, present in equal volumes of LB equilibrated with air or flushed with CO/N2 for 30 s, and calculated according to the following equation: Gas % = ([O2] air equilibrated − [O2] gas flushed)/[O2] air equilibrated × 100. [O2] air equilibrated and [O2] gas flushed are the O2 concentration values measured in the degassed chamber of a high-resolution respirometer (Oxygraph-2k, Oroboros Instruments GmbH, Innsbruck, Austria) of non-fluxed and fluxed E. coli cultures with CO or N2, respectively. The growth of the E. coli cultures was then monitored via a standard method using optical density measurements in an Eppendorf BioSpectrometer basic at 600 nm every 30 min. When the OD600 was above 1, cultures were diluted before reading.
# Oxygraphic measurements were performed at 25 °C in 50 mM K/phosphate pH 7.0, using a high-resolution respirometer (Oxygraph-2k, Oroboros Instruments GmbH, Innsbruck, Austria) equipped with two 1.5-mL chambers. […] In the case of isolated membranes, O2 consumption was measured in the presence of 2.5 mM dithiothreitol (DTT) and 2.5 μM 2,3-dimethoxy-5-methyl-6-(3-methyl-2-butenyl)-1,4-benzoquinone (Q1), an artificial reducing couple specific for quinol oxidases. The catalytic O2-consuming activity was obtained by subtracting the non-enzymatic O2 consumption (Q1/DTT autoxidation in the absence of the membranes) from the O2 consumption rate measured after the addition of membranes.
# UV–visible absorption spectra were recorded to estimate the amount of each terminal oxidase present in cell suspensions. […]
# [2] = target: T2, cytochrome bd-II (bd-II-only E. coli membranes) (Escherichia coli, UniProt P26459); experiment: O2 reductase activity of isolated bd-II-containing membranes; type: biochemical
# T2 construct: the oxidases were in vivo conditions, i.e., integrated into native bacterial membranes; endogenous in cells; host or cells: E. coli TBE026 (MG1655 ΔcydB nuoB cyoB::kan); whole cells (A2) or membranes isolated from them (A6)
# T2 sequence (P26459 whole entry): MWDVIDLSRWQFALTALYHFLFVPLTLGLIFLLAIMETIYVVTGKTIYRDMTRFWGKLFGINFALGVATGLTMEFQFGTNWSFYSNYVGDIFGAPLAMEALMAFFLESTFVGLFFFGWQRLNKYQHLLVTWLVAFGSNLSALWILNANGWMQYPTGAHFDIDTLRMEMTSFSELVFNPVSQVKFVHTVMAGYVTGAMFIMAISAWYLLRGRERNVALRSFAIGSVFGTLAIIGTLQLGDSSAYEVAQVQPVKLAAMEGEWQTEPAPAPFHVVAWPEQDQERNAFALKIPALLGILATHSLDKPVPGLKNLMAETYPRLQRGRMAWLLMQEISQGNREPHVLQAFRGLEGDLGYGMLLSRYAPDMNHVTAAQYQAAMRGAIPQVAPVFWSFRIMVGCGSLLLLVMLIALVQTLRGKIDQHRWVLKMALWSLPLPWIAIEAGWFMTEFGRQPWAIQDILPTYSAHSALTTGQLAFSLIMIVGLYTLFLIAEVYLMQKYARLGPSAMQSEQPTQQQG
# T2 sequence (P26458 whole entry partner): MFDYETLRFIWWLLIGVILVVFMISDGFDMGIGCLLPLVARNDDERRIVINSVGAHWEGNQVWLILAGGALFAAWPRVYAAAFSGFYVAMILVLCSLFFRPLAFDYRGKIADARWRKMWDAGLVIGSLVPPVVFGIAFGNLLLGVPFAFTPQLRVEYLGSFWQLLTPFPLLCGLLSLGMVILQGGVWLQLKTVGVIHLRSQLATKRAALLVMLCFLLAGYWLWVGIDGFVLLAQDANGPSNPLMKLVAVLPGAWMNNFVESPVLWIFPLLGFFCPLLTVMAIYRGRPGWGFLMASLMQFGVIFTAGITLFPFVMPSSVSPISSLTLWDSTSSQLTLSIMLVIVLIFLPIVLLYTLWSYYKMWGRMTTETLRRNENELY
# T2 sequence (P24244 whole entry partner): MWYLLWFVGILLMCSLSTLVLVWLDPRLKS
# Description: (§2) To isolate membranes from E. coli respiratory mutants expressing only one terminal quinol oxidase (cytochrome bd-I or cytochrome bd-II or cytochrome bo3), cell cultures were grown in LB medium until an OD600 of about 2 was reached. The cells were then pelleted by centrifugation at 10,000 rpm for 10 min and washed twice in 20 mM TRIS pH 8.3 containing 0.5 mM EDTA and 5 mM MgSO4. The cells were resuspended in the same buffer containing 1 mg/mL lysozyme and incubated for two hours on ice. A spatula tip of DNAse and RNase was then added, and the cells were lysed by sonication. Cell debris was removed by centrifugation at 15,000 rpm for 10 min. Membrane fractions were collected and stored at −80 °C. The protein content was determined using the Bradford method, using the Bradford reagent (Sigma) with bovine serum albumin as standard.
# (§3) Oxygraphic measurements were performed at 25 °C in 50 mM K/phosphate pH 7.0, using a high-resolution respirometer (Oxygraph-2k, Oroboros Instruments GmbH, Innsbruck, Austria) equipped with two 1.5-mL chambers. The O2 consumption of E. coli cells was followed with endogenous reductants. In the case of isolated membranes, O2 consumption was measured in the presence of 2.5 mM dithiothreitol (DTT) and 2.5 μM 2,3-dimethoxy-5-methyl-6-(3-methyl-2-butenyl)-1,4-benzoquinone (Q1), an artificial reducing couple specific for quinol oxidases. […]
# [3] = target: T3, cytochrome bo3 (bo3-only E. coli membranes) (Escherichia coli, UniProt P0ABI8); experiment: O2 reductase activity of isolated bo3-containing membranes; type: biochemical
# T3 construct: the oxidases were in vivo conditions, i.e., integrated into native bacterial membranes; endogenous in cells; host or cells: E. coli TBE025 (MG1655 ΔcydB nuoB appB::kan); whole cells (A3) or membranes isolated from them (A7)
# T3 sequence (P0ABI8 whole entry): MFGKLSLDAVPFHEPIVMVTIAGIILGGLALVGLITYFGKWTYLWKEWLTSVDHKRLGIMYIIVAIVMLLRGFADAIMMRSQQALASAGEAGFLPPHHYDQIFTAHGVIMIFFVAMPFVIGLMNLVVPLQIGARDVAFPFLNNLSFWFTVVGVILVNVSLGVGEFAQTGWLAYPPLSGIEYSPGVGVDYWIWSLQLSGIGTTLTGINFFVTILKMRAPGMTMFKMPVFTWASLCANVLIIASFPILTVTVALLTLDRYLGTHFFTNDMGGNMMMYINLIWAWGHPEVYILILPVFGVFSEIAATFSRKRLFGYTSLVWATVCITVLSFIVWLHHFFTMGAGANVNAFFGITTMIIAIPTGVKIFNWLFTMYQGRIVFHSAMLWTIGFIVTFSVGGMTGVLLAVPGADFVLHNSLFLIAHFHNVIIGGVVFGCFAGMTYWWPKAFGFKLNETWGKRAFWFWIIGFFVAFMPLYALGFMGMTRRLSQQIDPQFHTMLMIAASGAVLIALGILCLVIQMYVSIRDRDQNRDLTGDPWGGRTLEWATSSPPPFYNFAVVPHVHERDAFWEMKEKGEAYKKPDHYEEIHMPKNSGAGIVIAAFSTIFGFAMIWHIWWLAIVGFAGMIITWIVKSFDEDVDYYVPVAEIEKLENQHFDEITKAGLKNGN
# T3 sequence (P0ABJ1 25-315 partner): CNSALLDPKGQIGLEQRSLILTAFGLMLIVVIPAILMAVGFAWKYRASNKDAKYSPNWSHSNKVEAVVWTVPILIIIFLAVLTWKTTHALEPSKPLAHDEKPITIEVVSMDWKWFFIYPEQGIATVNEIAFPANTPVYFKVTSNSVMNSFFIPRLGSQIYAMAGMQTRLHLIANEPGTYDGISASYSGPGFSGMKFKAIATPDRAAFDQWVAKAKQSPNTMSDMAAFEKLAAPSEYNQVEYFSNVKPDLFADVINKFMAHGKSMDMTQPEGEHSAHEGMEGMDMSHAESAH
# T3 sequence (P0ABJ3 whole entry partner): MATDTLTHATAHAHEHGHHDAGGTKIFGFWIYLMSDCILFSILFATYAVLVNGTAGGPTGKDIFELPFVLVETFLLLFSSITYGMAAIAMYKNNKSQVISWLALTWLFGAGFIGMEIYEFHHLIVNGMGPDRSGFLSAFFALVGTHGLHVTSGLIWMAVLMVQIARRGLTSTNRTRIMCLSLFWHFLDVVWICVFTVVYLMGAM
# T3 sequence (P0ABJ6 whole entry partner): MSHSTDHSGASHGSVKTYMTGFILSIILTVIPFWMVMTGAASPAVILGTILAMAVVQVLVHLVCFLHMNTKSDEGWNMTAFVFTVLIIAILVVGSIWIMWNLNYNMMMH
# Description: as §2, §3
# [4] = tested on: E. coli mutant strain expressing cytochrome bo3 as the sole terminal oxidase; experiment: Cell growth (OD600) of bo3-only strain in presence of CO; type: cell-based, Escherichia coli; settings: ~20% CO added at 60 min after start of growth in air, vs ~20% N2 control
# Description: as §1, with “E. coli cultures were grown in Luria–Bertani (LB) medium supplemented with 30 μg/mL kanamycin, at 37 °C and 200 rpm. In the case of growth studies, after inoculation at an OD600 of 0.15 ± 0.03, the cells were grown in 50 mL rubber-stoppered flasks in 16 mL of air-equilibrated LB at 37 °C for 60 min; when OD600 reached 0.4 ± 0.08, they were bubbled for 30 s with either CO (pure gas at 1 atm and room temperature) or N2 (pure gas at 1 atm and room temperature) as a control to yield a final concentration of both gases of ~20%.” left out, “When the OD600 was above 1, cultures were diluted before reading.” left out
# [5] = tested on: terminal oxidase operons cyoABCDE, cydABX, appCBX; set-up: method as in PMID 26907100; settings: wild-type E. coli exposed to CO gas, cited from earlier work
# [6] = tested on: E. coli mutant strain expressing cytochrome bd-I as the sole terminal oxidase; experiment: Cell growth (OD600) of bd-I-only strain in presence of CO; type: cell-based, Escherichia coli; settings: ~20% CO added at 60 min after start of growth in air, vs ~20% N2 control
# Description: as §1, with “E. coli cultures were grown in Luria–Bertani (LB) medium supplemented with 30 μg/mL kanamycin, at 37 °C and 200 rpm. In the case of growth studies, after inoculation at an OD600 of 0.15 ± 0.03, the cells were grown in 50 mL rubber-stoppered flasks in 16 mL of air-equilibrated LB at 37 °C for 60 min; when OD600 reached 0.4 ± 0.08, they were bubbled for 30 s with either CO (pure gas at 1 atm and room temperature) or N2 (pure gas at 1 atm and room temperature) as a control to yield a final concentration of both gases of ~20%.” left out, “When the OD600 was above 1, cultures were diluted before reading.” left out
# [7] = target: T4, cytochrome bo3 (bo3-only E. coli cells) (Escherichia coli, UniProt P0ABI8); experiment: O2 consumption (aerobic respiration) of bo3-only E. coli cell suspensions; type: cell-based; settings: for IC50: read-out: apparent IC50
# T4 construct: the oxidases were in vivo conditions, i.e., integrated into native bacterial membranes; endogenous in cells; host or cells: E. coli TBE025 (MG1655 ΔcydB nuoB appB::kan); whole cells (A3) or membranes isolated from them (A7)
# T4 sequence (P0ABI8 whole entry): as the sequence (P0ABI8 whole entry) above
# T4 sequence (P0ABJ1 25-315 partner): as the sequence (P0ABJ1 25-315 partner) above
# T4 sequence (P0ABJ3 whole entry partner): as the sequence (P0ABJ3 whole entry partner) above
# T4 sequence (P0ABJ6 whole entry partner): as the sequence (P0ABJ6 whole entry partner) above
# Description: as §1
# Oxygraphic measurements were performed at 25 °C in 50 mM K/phosphate pH 7.0, using a high-resolution respirometer (Oxygraph-2k, Oroboros Instruments GmbH, Innsbruck, Austria) equipped with two 1.5-mL chambers. The O2 consumption of E. coli cells was followed with endogenous reductants. In the case of isolated membranes, O2 consumption was measured in the presence of 2.5 mM dithiothreitol (DTT) and 2.5 μM 2,3-dimethoxy-5-methyl-6-(3-methyl-2-butenyl)-1,4-benzoquinone (Q1), an artificial reducing couple specific for quinol oxidases. The catalytic O2-consuming activity was obtained by subtracting the non-enzymatic O2 consumption (Q1/DTT autoxidation in the absence of the membranes) from the O2 consumption rate measured after the addition of membranes.
# UV–visible absorption spectra were recorded to estimate the amount of each terminal oxidase present in cell suspensions. For this purpose, an Agilent Cary 60 UV-Vis or a Varian Cary 300 Bio UV-Visible spectrophotometer was used.
# Data analysis was carried out using software packages Origin v7.0 (OriginLab Corporation, Northampton, MA, USA) and GIM (Scientific Graphic Interactive Management System developed by A.L. Drachev in Lomonosov Moscow State University). The percentage inhibition of O2 consumption of cell suspensions (i%) was calculated using the equation i% = ((V0 − V0,i)/V0)·100, where V0 and V0,i are the initial rates in the absence and in the presence of the inhibitor (CO), respectively. The apparent IC50 values of cytochromes bd-II and bo3 for CO were estimated by plotting i% as a function of CO concentration added ([CO]0). The data were fitted to the standard hyperbolic equation i% = imax%·[CO]0/(IC50 + [CO]0) using a built-in approximation function (‘Hyperbola function’) in ‘Advanced Fitting tool’ in the Origin program. The imax% parameter is a theoretical maximum percent inhibition. […]
# [8] = 196.3 μM CO added at [O2] = 50 μM
# [9] = 196.3 μM CO added at [O2] = 100 μM
# [10] = 196.3 μM CO added at [O2] = 200 μM
compound,measurement,setting,value
"[C-]#[O+] [CO, Carbon monoxide]",inhibition of O2 consumption,"[1]; 96.3 μM CO added at [O2] = 100 μM, bd-I-only cells",11.6 ± 1.1%
same,maximum inhibition percentage of respiration,[1]; [8],39.6 ± 4.5%
same,maximum inhibition percentage of respiration,[1]; [9],18.0 ± 7.8%
same,maximum inhibition percentage of respiration,[1]; [10],9.7 ± 4.9%
same,CO inhibition of O2 reductase activity of membranes,[2],effectively inhibits
same,CO inhibition of O2 reductase activity of membranes,[3],effectively inhibits
same,effect on cell growth,[4],severely impaired
same,decrease in the expression of the cyoABCDE operon,[5]; aerobic conditions,5- to 10 fold
same,increase in the expression of the cydABX operon,[5]; aerobic conditions,4 fold
same,changes in the expression of the appCBX operon,[5],slight
same,effect on cell growth,[6],a minimal effect on cell growth was observed
same,inhibition of O2 consumption,"[7]; 96.3 μM CO added at [O2] = 100 μM, bo3-only cells",44.3 ± 1.5%
same,maximum inhibition percentage of respiration,[7]; [8],85.6 ± 3.7%
same,maximum inhibition percentage of respiration,[7]; [9],65.3 ± 17.2%
same,maximum inhibition percentage of respiration,[7]; [10],39.7 ± 11.5%
same,IC50,[7]; CO added at [O2] = 50 μM,66.5 ± 10 µM
same,IC50,[7]; CO added at [O2] = 100 μM,131 ± 14 µM
